From the supplement of paper PMC10307832

What was measured:
Assay in all cases: relative viability (nuclei count vs DMSO), 5 days (fraction); higher = more cells survive
Motesanib + Lapatinib = compound: CC1(C)CNc2cc(NC(=O)c3cccnc3NCc3ccncc3)ccc21 [Motesanib] + CS(=O)(=O)CCNCc1ccc(-c2ccc3ncnc(Nc4ccc(OCc5cccc(F)c5)c(Cl)c4)c3c2)o1 [Lapatinib] (partner 2 µM)
Outline: (§1)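 One day after seeding in 1536-well plates, lung cancer cell lines were dosed by pin tool. Dosing was either single-drug or a fixed anchor-drug dose plus five library-drug doses (not always all listed) in √10 steps. After 5 days, nuclei were stained in one fix-and-stain step and counted on 4× images, and relative viability is the nuclei count of treated wells over that of vehicle wells, given as the median of duplicate plates.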

[1] = compound: C[C@@]1(C(=O)Nc2ccc(F)nc2)CCCN1c1nc(Nc2cc(C3CC3)n[nH]2)c2cccn2n1 + C[C@@H](Oc1cc(-c2cnn(C3CCNCC3)c2)cnc1N)c1c(Cl)ccc(F)c1Cl [Crizotinib] (partner 1 µM)
Outline: as §1

[2] = compound: C[C@@]1(C(=O)Nc2ccc(F)nc2)CCCN1c1nc(Nc2cc(C3CC3)n[nH]2)c2cccn2n1 + O=C(c1cc(Cc2n[nH]c(=O)c3ccccc23)ccc1F)N1CCN(C(=O)C2CC2)CC1 [Olaparib] (partner 8 µM)
Outline: as §1

Motesanib + Dasatinib = compound: CC1(C)CNc2cc(NC(=O)c3cccnc3NCc3ccncc3)ccc21 [Motesanib] + Cc1nc(Nc2ncc(C(=O)Nc3c(C)cccc3Cl)s2)cc(N2CCN(CCO)CC2)n1 [Dasatinib] (partner 0.075 µM)
Outline: as §1

Row | Cell Line | relative viability (Motesanib + Lapatinib; first compound 0.01 µM) | relative viability (Motesanib + Lapatinib; first compound 0.03162 µM) | relative viability (Motesanib + Lapatinib; first compound 0.1 µM) | relative viability (Motesanib + Lapatinib; first compound 0.3162 µM) | relative viability (Motesanib + Lapatinib; first compound 1 µM) | relative viability ([1]; first compound 0.04 µM) | relative viability ([1]; first compound 0.1265 µM) | relative viability ([1]; first compound 0.4 µM) | relative viability ([1]; first compound 1.265 µM) | relative viability ([2]; first compound 0.04 µM) | relative viability ([2]; first compound 0.1265 µM) | relative viability ([2]; first compound 0.4 µM) | relative viability ([2]; first compound 1.265 µM) | relative viability (Motesanib + Dasatinib; first compound 0.01 µM) | relative viability (Motesanib + Dasatinib; first compound 0.03162 µM) | relative viability (Motesanib + Dasatinib; first compound 0.1 µM) | relative viability (Motesanib + Dasatinib; first compound 0.3162 µM) | relative viability (Motesanib + Dasatinib; first compound 1 µM)
1 | NCI-H1915 | 0.99 | 0.929 | 0.866 | 0.939 | 1.01 | 0.932 | 0.874 | 0.898 | 0.952 | 0.266 | 0.257 | 0.242 | 0.257 | 0.32 | 0.329 | 0.303 | 0.312 | 0.279
2 | NCI-H1944 | 0.944 | 0.831 | 0.842 | 0.836 | 0.859 | 0.981 | 1.03 | 0.875 | 1.17 | 0.413 | 0.394 | 0.362 | 0.492 | 0.205 | 0.215 | 0.25 | 0.225 | 0.231
3 | NCI-H1975 | 0.873 | 0.815 | 0.89 | 0.907 | 0.993 | 0.962 | 0.929 | 0.899 | 0.486 | 0.653 | 0.749 | 0.626 | 0.476 | 0.363 | 0.328 | 0.397 | 0.324 | 0.312
4 | NCI-H1993 | 0.884 | 0.893 | 0.801 | 0.867 | 0.638 | 0.663 | – | 0.64 | 0.633 | 0.926 | 0.88 | 0.492 | 0.662 | 0.629 | 0.509 | 0.639 | 0.63 | 0.588
5 | NCI-H2009 | 1.08 | 0.927 | 0.962 | 1.36 | 0.898 | 1.06 | 1.01 | 0.966 | 0.541 | 0.718 | 0.657 | 0.726 | 0.663 | 0.286 | 0.245 | 0.304 | 0.314 | 0.346
6 | NCI-H2023 | 0.939 | 0.778 | 0.54 | 0.988 | 0.897 | 0.467 | 0.424 | 0.318 | 0.119 | 0.456 | 0.422 | 0.333 | 0.122 | 0.576 | 0.476 | 0.575 | 0.59 | 0.662
7 | NCI-H2085 | 0.77 | 0.779 | 0.798 | 0.772 | 0.779 | 0.913 | 0.979 | 0.844 | 0.635 | 0.827 | 0.748 | 0.711 | 0.819 | 0.286 | 0.204 | 0.225 | 0.252 | 0.23
8 | NCI-H2087 | 1.23 | 0.923 | 1.23 | 1.38 | 1.1 | 0.88 | 1.06 | 0.699 | 0.613 | 0.593 | 0.483 | 0.369 | 0.482 | 0.838 | 0.841 | 0.774 | 0.91 | 0.895
9 | NCI-H2126 | 0.811 | 0.768 | 0.718 | 0.789 | 0.728 | 0.923 | 0.845 | 0.672 | 0.98 | 0.67 | 0.643 | 0.575 | 0.76 | 0.598 | 0.541 | 0.597 | 0.545 | 0.635
10 | NCI-H2170 | 0.243 | 0.282 | 0.228 | 0.262 | 0.293 | 1.09 | 1.11 | 1.03 | 1.27 | 0.568 | 0.556 | 0.488 | 0.601 | 0.533 | 0.507 | 0.463 | 0.511 | 0.57
11 | NCI-H2228 | 0.902 | 1.13 | 0.848 | 1.24 | 1.08 | 0.395 | 0.342 | 0.262 | 0.255 | 0.767 | 0.503 | 0.426 | 0.32 | 0.497 | 0.49 | 0.549 | 0.495 | 0.502
12 | NCI-H2347 | 0.961 | 0.776 | 0.986 | 1.01 | 0.838 | 0.706 | 0.75 | 0.629 | 0.569 | 0.536 | 0.569 | 0.48 | 0.524 | 0.299 | 0.302 | 0.344 | 0.3 | 0.305
13 | NCI-H2405 | – | 1.05 | 1.09 | 1.16 | 1.12 | 0.862 | 0.759 | 0.649 | 0.889 | 0.808 | 0.611 | 0.598 | 0.511 | – | 0.196 | 0.232 | 0.283 | 0.208
14 | NCI-H3122 | 0.991 | 1.03 | 0.965 | 1.03 | 1.02 | 0.212 | 0.2 | 0.182 | 0.222 | 0.633 | 0.571 | 0.581 | 0.723 | 0.705 | 0.825 | 0.677 | 0.893 | 0.916
15 | PC-3 [JPC-3] | 0.465 | 0.459 | 0.451 | 0.42 | 0.465 | 1.03 | 0.921 | 0.905 | 1.01 | 1.23 | 0.798 | 1.04 | 1.1 | 0.845 | 0.989 | 0.974 | 1.04 | 0.974
16 | PC-14 | 0.318 | 0.264 | 0.336 | 0.334 | 0.339 | 0.901 | 0.806 | 0.758 | 0.763 | 0.368 | 0.335 | 0.319 | 0.222 | 0.288 | 0.286 | 0.256 | 0.298 | 0.319
17 | RERF-LC-KJ | 0.895 | 0.876 | 0.958 | 0.827 | 0.853 | 0.874 | 0.733 | 0.732 | 0.801 | 0.892 | 0.858 | 0.737 | 0.345 | 0.92 | 0.803 | 0.806 | 0.811 | 0.839
18 | SK-LU-1 | 0.844 | 1.02 | 0.894 | 0.961 | 1.01 | 0.824 | 0.875 | 0.715 | 0.467 | 0.414 | 0.361 | 0.396 | 0.403 | 0.189 | 0.189 | 0.183 | 0.198 | 0.209
